Patent publication US6878722B2, “Substituted cycloalkyl P1′ hepatitis C virus inhibitors” (Bristol-Myers Squibb Company, priority 2002, dated 2005)
pIC50: −log10 of the molar value.

Experiments:
Format in all cases: biochemical
[1] = biological target: T1, HCV NS3/4A protease complex (BMS strain, genotype 1a) (Hepatitis C virus genotype 1a, UniProt P27958, C1454S); assay: Recombinant HCV NS3/4A protease complex FRET peptide assay, BMS strain
T1 construct: DNA encoding the recombinant HCV NS3/4A protease complex (amino acids 1027 to 1711) for these strains; inferred from the pET21b vector and Ni-NTA purification; made in house; host or cells: Escherichia coli BL21 (DE3), pET21b
T1 sequence (P27958 1658-1714, looked up, stated change not applied): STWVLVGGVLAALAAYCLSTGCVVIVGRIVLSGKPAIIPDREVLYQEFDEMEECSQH
T1 sequence (P27958 1027-1657, looked up, stated change not applied): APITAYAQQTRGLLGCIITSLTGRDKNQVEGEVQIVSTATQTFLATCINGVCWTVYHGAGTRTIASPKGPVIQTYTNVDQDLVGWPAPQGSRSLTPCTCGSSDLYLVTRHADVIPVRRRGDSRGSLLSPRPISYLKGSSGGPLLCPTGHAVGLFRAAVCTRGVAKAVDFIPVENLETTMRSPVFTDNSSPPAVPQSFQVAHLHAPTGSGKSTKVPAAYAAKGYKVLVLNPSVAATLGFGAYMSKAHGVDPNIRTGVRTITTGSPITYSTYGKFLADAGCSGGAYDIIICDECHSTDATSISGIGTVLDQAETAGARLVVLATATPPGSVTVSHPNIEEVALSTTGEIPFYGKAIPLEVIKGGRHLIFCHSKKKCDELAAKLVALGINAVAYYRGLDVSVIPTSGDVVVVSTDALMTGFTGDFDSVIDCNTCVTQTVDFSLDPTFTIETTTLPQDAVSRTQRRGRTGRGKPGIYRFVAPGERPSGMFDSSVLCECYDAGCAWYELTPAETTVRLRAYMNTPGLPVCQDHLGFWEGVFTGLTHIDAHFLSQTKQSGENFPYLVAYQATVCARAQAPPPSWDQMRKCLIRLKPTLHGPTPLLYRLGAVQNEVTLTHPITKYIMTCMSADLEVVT
Procedure, shortened: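 Recombinant NS3/4A complex (aa 1027–1711) with C-terminal three-lysine tail, C1711G and C1454S, expressed in E. coli BL21(DE3) and purified by Ni-NTA then Superdex-S200. Inhibition of the complex from each strain measured in vitro by FRET peptide cleavage.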

[2] = system: human pancreatic chymotrypsin; assay: Specificity assay, chymotrypsin; settings: 2 hr pre-incubation
Description: (§1) The specificities of compounds of the present invention were determined against a variety of serine proteases: human sputum elastase (HS), porcine pancreatic elastase (PPE) and human pancreatic chymotrypsin and one cysteine protease: human liver cathepsin B. In all cases a 96-well plate format protocol using colorimetric p-nitroaniline (pNA) substrate specific for each enzyme was used as described previously (Patent WO 00/09543) with some modifications to the serine protease assays. All enzymes were purchased from Sigma while the substrates were from Bachem.
(§2) Each assay included a 2 hr enzyme-inhibitor pre-incubation at room temperature followed by addition of substrate and hydrolysis to ˜30% conversion as measured on a Spectramax Pro microplate reader. Compound concentrations varied from 100 to 0.4 μM depending on their potency. […]
(§3) The percentage of inhibition was calculated using the formula: [1−((UVinh−UVblank)/(UVctl−UVblank))]×100 […]

human liver cathepsin B = biological target: T2, human liver cathepsin B (Homo sapiens, UniProt P07858); assay: Specificity assay, cathepsin B; settings: 2 hr pre-incubation
T2 construct: purchased Sigma
Description: as §1, §2, §3

For `C=CC1C[C@]1(NC(=O)[C@@H]1C[C@@H](Oc2cc(-c3ccccc3)nc3cc(OC)ccc23)CN1C(=O)[C@@H](NC(=O)OC(C)(C)C)C(C)(C)C)C(=O)NS(=O)(=O)C1(C)CC1` (stereo in doubt) [Compound 1, (1-{4-(7-Methoxy-2-phenylquinolin-4-yloxy)-2-[1-(1-methylcyclopropanesulfonylaminocarbonyl)-2-vinylcyclopropylcarbamoyl]pyrrolidine-1-carbonyl}-2,2-dimethylpropyl)carbamic acid tert-butyl ester], the pIC50 ([1]; IC50 against the NS3/4A BMS strain in the enzyme assay, BMS strain) was 8.74, the pIC50 ([1]; IC50 range, NS3/4A BMS Strain) was greater than 7.30 and the pIC50 [2] was less than 4.00. The pIC50 (human liver cathepsin B) was less than 4.00.
